Assay results reported in patent US20040132969A1, “Antibodies, peptides, analogs and uses thereof” (priority 2000, published 2004).
“Also recorded” adds a separate entry of the source.

Legend:
[1] = test system: chick chorioallantoic membrane (CAM) vessels; experiment: Vessel counting assay using CAM model; type: in vivo
Procedure: The CAM were prepared as for the tritiated thymidine assay.
Dulbecco's phosphate buffered saline was used as a control. A range of concentrations of peptides WTM33, WTM34, and WTM35 (1.875, 3.75, 7.5, 15, 30, and 60 μg/ml) were added to the CAM. Inoculations of 0.2 ml of the peptide were carried out on days 10,11 and 12 of CAM development, and then fixed using formalin on day 15.
After fixing in formalin for 2 days the CAM were excised and spoke like sections cut from the centre of the CAM to the outer edge. These were embedded in wax and processed on to slides with H&E staining to visualise the vessels in the section. The numbers of vessels per field of vision, over 10 fields were counted using an Olympus microscope. [Eyepieces set at 58, using ×40 (0.65) lens, from the graticule diameter of field is 0.45 mm, and therefore 1 mm is equal to 2.22 fields of view.] The average number of vessels/field of view×2.22 gives number of vessels/mm of CAM.

[2] = test system: human umbilical vein endothelial cells (HUVEC) co-cultured with primary human diploid fibroblasts; experiment: Angiosys co-culture angiogenesis assay (HUVEC tubule formation); type: cell-based
From the text: The recently developed Angiosys™ co-culture angiogenesis assay (TCS Cell Works, Botolph Claydon, UK) was employed to examine the biological activity of the fibrin E analogue peptides WTM33, WTM34, WTM35, WTM36, and WTM37. This assay involves the co-culturing of human umbilical vein endothelial cells (HUVEC) with primary human diploid fibroblasts. In control cultures treated by the standard method as supplied by the manufacturers, both cell populations increase in number to form a confluent fibroblast monolayer on top off which the HUVEC cells form into corded structures. These structures thicken and anastomose by day 14 to form an intricate network of microvessel-like structures that resemble a capillary bed. It has previously been shown that the control conditions in this assay result in an intermediate degree of formation of these microtubules that can be enhanced by angiogenic effectors such as vascular endothelial growth factor (VEGF), or reduced by anti-angiogenic agents such as suramin (33).
The Angiosys™ assay was used as directed by the manufacturer. Briefly, HUVEC and human diploid fibroblasts were admixed, seeded into 24-well culture plates and incubated for 14 days in endothelial cell culture medium (ECM, TCS Cell Works). This medium, which was replaced with fresh every second day, contains angiogenic factors such as VEGF. Fibrin E analogue peptides were dissolved in this same medium to the indicated concentrations and applied to the cells in the same way as control medium. After the incubation period of 14 days, medium was removed and the cells were fixed in situ at room temperature in 70% ethanol and viewed with an MRC 600 confocal microscope (Bio-Rad). Images were captured using a JVC videocamera mounted on the microscope and coupled to a Neotech Image Grabber/PC.
The table illustrates the […] effects of peptide WTM 35 and 36 (0.19-0.75 μg/ml) on HUVEC tubule formation in the Angiosys™ co-culture angiogenesis assay, compared with an untreated control. The table show the average tubule length obtained using an image analysis package for the PC which transforms the visual data into pixels: […]

HUVEC and fibroblasts = experiment: Neutral Red cell metabolism cytotoxicity assay; type: cell-based, human; conditions: HUVEC and fibroblast monocultures; 72 hours
Procedure: In order to determine whether the fibrin E analogue peptides WTM33, WTM34, WTM35, WTM36, and WTM37 are cytotoxic when applied to the HUVEC and fibroblasts used in the Angiosys™ angiogenesis assay, these reagents were examined in two different cytotoxicity assays. To simplify performance of these assays and discriminate between fibroblasts and HUVEC, cells were grown in monocultures rather than together and then treated with the experimental reagents as described below.
A Neutral Red cell metabolism assay was used to determine the cytotoxicity to HUVEC and fibroblasts of the fibrin E analogue peptides. This assay works on the basis of colorimetric measurement of a red dye which, is reported to be taken up into the lysosomes of uninjured cells. Thus the stronger the colour signal obtained from a well of cells, the greater the percentage of cells remaining viable within that well. HUVEC cells were inoculated into wells of 96 wells at a density of 5×10^3 cells per well, in endothelial cell culture medium. Fibroblasts were similarly seeded 5×10^3 cells per well. The cells were incubated for 24 hours under standard conditions to permit adherence and growth, and then treated for 72 hours with fresh medium containing fibrin E peptides over the same range of concentrations used in the Angiosys™ angiogenesis assay. For each concentration of each of the six peptides, four replicate wells of each cell type were treated and then assayed. Following incubation with the test compounds, the medium was removed and replaced with 200 μl per well of fresh medium containing 3.57 mg neutral red per 100 ml. The cells were incubated with this neutral red solution for 3 hours, after which this solution was decanted and replaced with 100 μl 1% formaldehyde/1% CaCl2. This was rapidly decanted and replaced in turn with 200 μl 50% ethanol/1% acetic acid, which was incubated at room temperature for 30 minutes to extract the neutral red from the cells. The plates were then read in a 96 well plate-format spectrophotometer, measuring absorbance at 540 nm. Mean absorbance values from each group of four wells were calculated and expressed as a percentage±standard deviation of the mean value obtained from control wells incubated in the absence of fibrin E analogue peptide.

LHADPDLGVLCPTGC [WTM34]
effect on vessel number ([1]; 30 microgrammes/ml): significant reduction in the number of vessels
effect on number of vessels per mm of CAM ([1]; across the range of concentrations tested (1.875-60 μg/ml)): inhibits cell proliferation and vessel formation in the CAM
effect on number of vessels per mm of CAM ([1]; across the range of concentrations tested (1.875-60 μg/ml), listed as WTM 34): more dramatic biphasic reaction
effect on number of vessels per mm of CAM ([1]; higher dose range / very high doses): significant reduction in vessel formation
effect on vessel number ([1]; low doses): stimulatory effect on vessel number
HUVEC tubule formation (in words) ([2]; 0.75, 0.38 and 0.19 μg/ml): inhibit HUVEC tubule formation; also recorded: complete inhibition - no tubule
toxic effect (number of fibroblasts and endothelial cells present) ([2]; Angiosys system): did not have a toxic effect
HUVEC tubule formation (in words) ([2]; across the range of / all concentrations): inhibition of HUVEC tubule formation; also recorded: most inhibitory
HUVEC tubule formation (in words) ([2]; lowest applied doses of 3 μg/ml): markedly reduced the formation of tubules
cytotoxicity / cell viability, Neutral Red assay (HUVEC and fibroblasts): not cytotoxic; also recorded: no toxicity
